According to ChEMBL document CHEMBL5604062, “ASAP - ZIKV NS2B-NS3 protease fluorescence dose response” (2024):
“And” between values parts separate entries of the source, which are not always exact repeats. Equal values may be shown once.

Target: Nonstructural protein 3 (Zika virus, UniProt A0A024AXB9)
Experiment: Functional biochemical assay to identify treatments for viral infectious disease that targets Zika NS2B-NS3 protease. Utilizing a direct enzyme activity measurement method, reading the fluorescence intensity is used to characterize the relative potency of inhibitors as IC50.
Design: species or system PRVABC59

Chain of Nonstructural protein 3 (A0A024AXB9 whole entry): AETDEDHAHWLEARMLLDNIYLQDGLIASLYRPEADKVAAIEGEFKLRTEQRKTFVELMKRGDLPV

| SMILES | IC50 |
| --- | --- |
| Cc1ncc2c(n1)CCC[C@H]2NC(=O)c1cccc2c1CC(=O)N2 | > 25000 nM |
| O=C(O)c1ccc(-c2cc(NC(=O)c3cc(F)cc4[nH]ncc34)cc3c2CNC3)cc1 | 35 nM and 29 nM |
| O=C(Nc1ccc2c(c1)CNC2)c1cc(F)cc(C=C2CCS(=O)(=O)CC2)c1 | 645 nM |
| NCCc1csc2cc(C(=O)Nc3cc([C@H]4CCOC4)ccn3)ccc12 | > 25000 nM |
| O=C(Nc1ccc2c(c1)CNC2)c1cc(F)cc(-c2cn[nH]c2)c1 | 34 nM and 23 nM |
| Cc1c(C(=O)Nc2ccc3c(c2)C(=O)N(C)C3)cc(C2CC2)n1C | > 25000 nM |
| Cc1c(C(=O)Nc2ccc3c(c2)CCS3(=O)=O)cc(C2CC2)n1C | > 25000 nM |
| Cc1cc(NC(=O)c2cc(C3CC3)n(C)c2C)ccc1N1CCCC1=O | > 25000 nM |
| Cc1c(C(=O)Nc2ccc3c(c2)CCCC(=O)N3C)cc(C2CC2)n1C | > 25000 nM |
| N#Cc1cccc(-c2nc3c(C(=O)Nc4ccc5c(c4)CNC5)cc(F)cc3[nH]2)c1 | 33 nM (2×) and 13 nM |
| COC[C@]1(c2nc3c(C(=O)Nc4ccc5c(c4)CNC5)cc(F)cc3[nH]2)CCOC1 | 344 nM |
| Cc1c(C(=O)Nc2ccc3c(c2)CCCC(=O)N3)cc(C2CC2)n1C | > 25000 nM |
| CC(C)Cn1cc2c(C(=O)Nc3ccc4c(c3)CNC4)cc(Cl)cc2n1 | 269 nM |
| COc1cc(OC)cc([C@H]2CCN(C(=O)Nc3ccc4c(c3)CNC4)C2)c1 | > 25000 nM |
| COC(=O)[C@H](C)n1cc2c(C(=O)Nc3ccc4c(c3)CNC4)cc(Cl)cc2n1 | 199 nM |
| COCn1ncc2c(C(=O)Nc3ccc4c(c3)CNC4)cc(Cl)cc21 | 80 nM and 54 nM |
| CO[C@H]1C[C@H](n2ncc3c(C(=O)Nc4ccc5c(c4)CNC5)cc(Cl)cc32)C1 | 54 nM and 42 nM |
| C=CC[C@H]1NCc2cc(NC(=O)c3ccc4c(c3)CC(=O)N4)ccc21 | > 25000 nM |
| CC(C)c1nn(C)cc1-c1cc(F)cc(C(=O)Nc2ccc3c(c2)CNC3)c1 | 632 nM |
| O=C(Nc1ccc2c(c1)CNC2)c1ccc2ncsc2n1 | 23500 nM |
| Brc1cc(CNc2ccc3c(c2)CNC3)c2cc[nH]c2c1 | 4320 nM |
| O=C(Nc1cc(-c2cccnc2)ccn1)c1cc(C2CC2)on1 | > 25000 nM |
| CC(C)n1cc(C(=O)Nc2cc(-c3cccnc3)ccn2)cn1 | > 25000 nM |
| O=C(Nc1ccc2c(c1)CNC2)c1cc(Cl)cc2nn(C3COC3)cc12 | 539 nM |

| SMILES | IC50 |
| --- | --- |
| O=C1Cc2c(cccc2C(=O)NC[C@H]2C[C@@H](n3cccn3)C2)N1 | > 25000 nM |
| Cc1nc(C2CC2)[nH]c1C(=O)Nc1cc(-c2cccnc2)ccn1 | > 25000 nM |
| CN1C(=O)CC[C@H]1c1nc2c(C(=O)Nc3ccc4c(c3)CNC4)cc(F)cc2[nH]1 | 264 nM |
| O=C(Nc1cc(-c2cccnc2)ccn1)c1cn2c(n1)CCC2 | > 25000 nM |
| O=C(NCCOCC1CC1)[C@H](Nc1ccc2c(c1)CNC2)c1cc(Cl)cc(C2CC2)c1 | 79 nM and 50 nM |
| CC1(c2nc(C(=O)Nc3cc(-c4cccnc4)ccn3)no2)CC1 | > 25000 nM |
| COC(=O)c1cc(C(=O)Nc2ccc3c(c2)CNC3)cc2[nH]ccc12 | > 25000 nM |
| O=C1Cc2c(cccc2C(=O)N[C@H]2CC[C@H](OC3CCCC3)CC2)N1 | > 25000 nM |
| Cc1c(C(=O)Nc2cc(-c3cccnc3)ccn2)cc(C#N)n1C | > 25000 nM |
| C[C@H]1C[C@H]1c1cc(C(=O)Nc2cc(-c3cccnc3)ccn2)no1 | > 25000 nM |
| O=C1Cc2c(cccc2C(=O)NC2(c3ncccc3F)CC2)N1 | > 25000 nM |
| Cc1ncc(-c2cc(F)cc(C(=O)Nc3ccc4c(c3)CNC4)c2)s1 | 71 nM and 52 nM |
| Cc1[nH]c(-c2ccccc2)cc1C(=O)Nc1cc(-c2cccnc2)ccn1 | > 25000 nM |
| CC(C)NC(=O)[C@H](Nc1ccc2c(c1)CN(C)C2)c1cc(Cl)cc2[nH]ncc12 | 533 nM |
| Fc1cc(CNc2ccc3c(c2)CNC3)c2cc[nH]c2c1 | 9310 nM |
| C=Cc1cc2c(cc1NC(=O)c1cc(F)cc3[nH]ncc13)CNC2 | 45 nM and 28 nM |
| Cc1nn(C)c(C)c1[C@H]1CCCN1C(=O)Nc1ccc2c(c1)CNC2 | > 25000 nM |
| C[C@]1(O)C(=O)Nc2cc(F)cc(C(=O)Nc3ccc4c(c3)CNC4)c21 | 171 nM |
| O=C1Cc2c(cc(F)cc2C(=O)Nc2cc([C@H]3CCOC3)ccn2)N1 | > 25000 nM |
| Cc1c(C(=O)Nc2ccc3c(c2)CS(=O)(=O)C3)cc(C2CC2)n1C | > 25000 nM |
| COC(=O)N1CCc2cc(NC(=O)c3cc(C4CC4)n(C)c3C)ccc21 | > 25000 nM |
| CCc1cc(C(=O)Nc2ccc3c(c2)CNC3)cc2cn[nH]c12 | 1610 nM |
| CCc1cccc(-c2nc3c(C(=O)Nc4ccc5c(c4)CNC5)cc(F)cc3[nH]2)c1 | 53 nM (2×) and 32 nM |
| O=C1Cc2c(cccc2C(=O)N[C@H]2C[C@H](c3ccon3)C2)N1 | > 25000 nM |

| SMILES | IC50 |
| --- | --- |
| O=C(Nc1ccc2c(c1)CNC2)c1cc(F)cc2[nH]c(-c3ccc(F)cc3)nc12 | 22 nM and 23 nM and 14 nM |
| CC(C)n1ncc2c(C(=O)Nc3ccc4c(c3)CNC4)cc(Cl)cc21 | 186 nM |
| Cc1cc(=O)[nH]c(-c2cccc(NC(=O)c3cc(C4CC4)n(C)c3C)c2)n1 | > 25000 nM |
| C=CC[C@H]1NCc2cc(N[C@H](C(=O)NCC(F)F)c3cc(Cl)cc(C4CC4)c3)ccc21 | 210 nM |
| COc1ccc([C@@H]2C[C@H]2NC(=O)c2cccc3c2CC(=O)N3)cc1 | > 25000 nM |
| COCCN1C(=O)CCc2cc(NC(=O)c3cc(C4CC4)n(C)c3C)ccc21 | > 25000 nM |
| O=C(Nc1cc(-c2cccnc2)ccn1)c1cnn2c1CCCC2 | 8030 nM |
| CC(C)(c1nc2c(C(=O)Nc3ccc4c(c3)CNC4)cc(F)cc2[nH]1)S(C)(=O)=O | 405 nM and 264 nM |
| COC(=O)c1cc2c(cc1NC(=O)c1cc(F)cc3[nH]ncc13)CNC2 | 50 nM and 29 nM |
| Cc1c(C(=O)Nc2cccc(C(=O)NC3CC3)c2)cc(C2CC2)n1C | > 25000 nM |
| COCCNC(=O)[C@H](Nc1cccc([C@H]2CCOC2)c1)c1cc(Br)cc2[nH]ccc12 | > 25000 nM |
| NCCc1csc2cc(C(=O)Nc3ccc4c(c3)CNC4)ccc12 | 144 nM |
| O=C(Nc1ccc2c(c1)CN[C@H]2C[C@H](O)CO)c1cc(Cl)cc2[nH]ncc12 | 198 nM |
| Cc1c(C(=O)Nc2cc(C#N)cn(C)c2=O)cc(C2CC2)n1C | > 25000 nM |
| O=C(Nc1ccc2c(c1)CNC2)c1cc(F)c2[nH]c(=O)[nH]c2c1 | 429 nM |
| O=C1C[C@H]2CN(C(=O)Nc3ccc4c(c3)CNC4)CC[C@H]2N1 | > 25000 nM |
| Cn1c(=O)[nH]c2cc(C(=O)Nc3ccc4c(c3)CNC4)cc(Br)c21 | 6850 nM |
| O=C(Nc1cc(-c2cccnc2)ccn1)c1cc(C2CC2)oc1C1CC1 | > 25000 nM |
| CCCn1ncc2c(C(=O)Nc3ccc4c(c3)CNC4)cc(Cl)cc21 | 188 nM |
| O=C(Nc1cc2c(c(-c3ccnnc3)c1)CNC2)c1cc(Cl)cc2[nH]ncc12 | 62 nM and 35 nM |
| Cc1cc(NC(=O)c2cc(C3CC3)n(C)c2C)cnc1N1CCCCC1 | > 25000 nM |
| O=C(Nc1cc(-c2cccnc2)ccn1)c1sc2c(c1Br)CNC2 | > 25000 nM |
| Cn1ncc(C(=O)Nc2cc(-c3cccnc3)ccn2)c1C1CC1 | 20800 nM |
| O=C(Nc1cc2c(c(C3=CCOCC3)c1)CNC2)c1cc(F)cc2[nH]ncc12 | 28 nM and 25 nM and 20 nM |

Continued, values first:

| IC50 | SMILES |
| --- | --- |
| > 25000 nM | Cn1nc([C@H](C#N)Nc2cccc([C@H]3CCOC3)c2)cc1C1CC1 |
| > 25000 nM | O=C1Cc2c(cccc2C(=O)N[C@H]2C[C@H](OC(F)F)C2)N1 |
| 25 nM and 15 nM | O=C(Nc1cc2c(c(-c3c[nH]c(=O)c(F)c3)c1)CNC2)c1cc(F)cc2[nH]ncc12 |
| > 25000 nM | CC(=O)N1CCCc2cc(NC(=O)c3cc(C4CC4)n(C)c3C)ccc21 |
| 494 nM | N#Cc1c[nH]c2ccc(C(=O)Nc3ccc4c(c3)CNC4)cc12 |
| 295 nM | O=C(Nc1ccc2c(c1)CNC2)c1cc(F)cc(C2=CCCOC2)c1 |
| 132 nM | O=C(Nc1ccc2c(c1)CNC2)c1cc(Cl)cc2nn(C3CCOCC3)cc12 |
| > 25000 nM | Cc1c(C(=O)Nc2cccc(-c3ccc(=O)[nH]n3)c2)cc(C2CC2)n1C |
| 59 nM and 33 nM | O=C(NCCCF)[C@H](Nc1ccc2c(c1)CNC2)c1cc(Cl)cc(C2CC2)c1 |
| 456 nM and 295 nM | O=C(Nc1ccc2c(c1)CNC2)c1cc(F)cc(-c2ccc3c(=O)[nH]ncc3c2)c1 |
| 16 nM (2×) and < 12 nM | N#Cc1cc2c(cc1NC(=O)c1cc(F)cc3[nH]ncc13)CNC2 |
| > 25000 nM | Cc1nc(C2(NC(=O)c3cccc4c3CC(=O)N4)CCC2)no1 |
| > 25000 nM | CC1=C(c2cc(F)cc(C(=O)Nc3ccc4c(c3)CNC4)c2)CCCC1 |
| > 25000 nM | CCOc1cccc(-c2cccc(NC(=O)c3cc(C4CC4)n(C)c3C)n2)c1 |
| > 25000 nM | Cc1c(C(=O)Nc2cccc(-c3ccc(O)nc3)c2)cc(C2CC2)n1C |
| > 25000 nM | O=C(Nc1cc(-c2cccnc2)ccn1)c1nc(Br)n2c1CNCC2 |
| 23 nM (2×) and 13 nM | O=C(Nc1ccc2c(c1)CNC2)c1cc(F)cc2[nH]c(-c3ccccc3F)nc12 |

| IC50 | SMILES |
| --- | --- |
| > 25000 nM | CC(C)(O)c1cncc(NC(=O)c2cccc3c2CC(=O)N3)c1 |
| 136 nM | O=C(Nc1ccc2c(c1)CNC2)c1cc(Cl)cc2c1cnn2C[C@H]1CCCO1 |
| 62 nM and 38 nM | O=C(O)CCCc1cc(NC(=O)c2cc(F)cc3[nH]ncc23)cc2c1CNC2 |
| > 25000 nM | Cc1c(C(=O)Nc2cc(-c3cccnc3)ccn2)c2ccccc2n1C |
| > 25000 nM | Cc1ccc(NC(=O)c2cc(C3CC3)n(C)c2C)cc1-c1cccnc1 |
| > 25000 nM | O=C(Nc1ccc2c(c1)CNC2)c1cc(F)c2[nH]nnc2c1 |
| 58 nM and 33 nM | O=C(Nc1ccc2c(c1)CNC2)c1cc(Cl)cc2c1cnn2C1CCOCC1 |
| > 25000 nM | Cc1c(C(=O)Nc2cccc(-c3cncnc3O)c2)cc(C2CC2)n1C |
| 362 nM | O=C(Nc1ccc2c(c1)CNC2)c1cc(F)cc(C2=CCOCC2)c1 |
| > 25000 nM | Cc1c(NC(=O)c2cccc3c2CC(=O)N3)cnn1C1CCOCC1 |
| 33 nM and 30 nM and 23 nM | COc1cc(-c2cc(NC(=O)c3cc(F)cc4[nH]ncc34)cc3c2CNC3)ccn1 |
| > 25000 nM | Cc1c(C(=O)Nc2cccc(Cn3ccccc3=O)c2)cc(C2CC2)n1C |
| 46 nM and 34 nM | CC(C)n1cc2c(C(=O)Nc3ccc4c(c3)CNC4)cc(Cl)cc2n1 |
| 38 nM and 30 nM and 26 nM | O=C(Nc1cc2c(c(C3=CCS(=O)(=O)CC3)c1)CNC2)c1cc(F)cc2[nH]ncc12 |
| 31 nM and 23 nM | O=C(Nc1ccc2c(c1)CNC2)c1cc(Cl)cc2c1cnn2C1CCC1 |
| 22400 nM | Clc1ccc2[nH]ncc2c1[C@@H]1C[C@H]1c1ccc2c(c1)CNC2 |
| > 25000 nM | O=C1Cc2c(cccc2C(=O)NCC2(F)CC3(CCOCC3)C2)N1 |
